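Dose response: 5 concentrations. Exposure: 48 h. Format: 96-well plates. Endpoint: linear interpolation; highest concentration if not reached. Here, GI50 denotes the concentration required for 50% inhibition of growth. TGI: total growth inhibition.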
Experiments:
Assay in all cases: NCI-60 cell line screen, 48 h
A549 NSCLC = system: A549 NSCLC
COLO 205 colon = system: COLO 205 colon
HOP-92 NSCLC = system: HOP-92 NSCLC
KM12 colon = system: KM12 colon
M14 melanoma = system: M14 melanoma
MCF7 breast = system: MCF7 breast
OVCAR-3 ovarian = system: OVCAR-3 ovarian
SNB-19 CNS = system: SNB-19 CNS
SR leukemia = system: SR leukemia
T-47D breast = system: T-47D breast

| SMILES | GI50 (A549 NSCLC) | TGI (A549 NSCLC) | GI50 (COLO 205 colon) | GI50 (HOP-92 NSCLC) | TGI (HOP-92 NSCLC) | GI50 (KM12 colon) | TGI (KM12 colon) | GI50 (M14 melanoma) | TGI (M14 melanoma) | GI50 (MCF7 breast) | TGI (MCF7 breast) | GI50 (OVCAR-3 ovarian) | TGI (OVCAR-3 ovarian) | GI50 (SNB-19 CNS) | TGI (SNB-19 CNS) | GI50 (SR leukemia) | GI50 (T-47D breast) | TGI (T-47D breast) | TGI (COLO 205 colon) | TGI (SR leukemia) |
| --- | --- | --- | --- | --- | --- | --- | --- | --- | --- | --- | --- | --- | --- | --- | --- | --- | --- | --- | --- | --- |
| COc1ccc(-c2cncn2-c2cc(OC)c(OC)c(OC)c2)cc1F | < 0.0348 µM | > 100 µM | < 0.0122 µM | 6 µM | 51.9 µM | < 0.01 µM | > 49.8 µM | < 0.01 µM | 0.141 µM | < 0.01 µM | > 100 µM | 0.0219 µM | 22.2 µM | < 0.0146 µM | > 100 µM | < 0.01 µM | < 0.01 µM | > 100 µM | – | – |
| Cc1ccc(-c2cc(/C=N/O)on2)cc1 | 51 µM | > 100 µM | 49.9 µM | 47.6 µM | > 100 µM | 35.6 µM | > 100 µM | 65.4 µM | > 100 µM | 55.1 µM | > 100 µM | 58.2 µM | > 100 µM | > 100 µM | > 100 µM | – | 29.5 µM | > 100 µM | > 100 µM | – |
| CCOC(=O)C(Cc1ccc(OC)cc1)C(=O)OCC | 7.01 µM | 33.7 µM | 7.23 µM | 6.93 µM | 30.4 µM | 3.01 µM | 9.85 µM | 8.17 µM | 20.7 µM | 3.03 µM | 13.8 µM | 3.59 µM | 11.6 µM | 4.82 µM | 17.4 µM | 1.88 µM | 2.8 µM | 12.4 µM | 19.7 µM | 5.38 µM |
| COc1ccc(-n2sc(=O)n(Cc3ccc(COC(=O)C(C)c4ccc(CC(C)C)cc4)cc3)c2=O)cc1 (stereo unspecified) | 9.56 µM | 25.9 µM | 1.1 µM | 1.01 µM | 3.14 µM | 7.7 µM | 14.6 µM | 2.6 µM | 9.45 µM | 1.82 µM | 9.54 µM | 0.821 µM | 1.52 µM | 7.38 µM | 14.5 µM | 1.46 µM | 1.32 µM | 5.54 µM | 2.6 µM | 50 µM |
| CON | > 100 µM | > 100 µM | > 100 µM | > 100 µM | > 100 µM | > 100 µM | > 100 µM | > 100 µM | > 100 µM | > 100 µM | > 100 µM | > 100 µM | > 100 µM | > 100 µM | > 100 µM | > 100 µM | > 100 µM | > 100 µM | > 100 µM | > 100 µM |
| C=C=[CH][Sn]([c]1ccccc1)([c]1ccccc1)[c]1ccccc1 | 1.91 µM | 4.42 µM | 1.52 µM | 0.593 µM | 2.03 µM | 1.49 µM | 2.95 µM | 1.81 µM | 3.47 µM | 1.41 µM | 2.81 µM | 1.54 µM | 4.61 µM | 1.81 µM | 3.34 µM | 1.32 µM | 1.29 µM | 2.82 µM | 2.87 µM | 8.39 µM |
| CC(=O)/C=C/C1=C(c2ccsc2)c2ccccc2CC1 | 17.4 µM | 37.5 µM | 36.5 µM | 17.2 µM | 50.6 µM | 17.2 µM | 33 µM | 17.8 µM | 37.1 µM | 21.4 µM | 40 µM | 19.4 µM | 39.7 µM | 42.5 µM | > 100 µM | – | 66 µM | > 100 µM | > 100 µM | – |
| CCOc1cc(/C=N\NC(=O)N/N=C/c2ccc(O)c(OCC)c2)ccc1O | 6.95 µM | > 100 µM | 3.85 µM | 87.5 µM | > 100 µM | 1.01 µM | > 100 µM | 1.63 µM | > 100 µM | 0.815 µM | > 100 µM | 0.308 µM | 1.08 µM | 4 µM | > 100 µM | 0.354 µM | 6.49 µM | > 100 µM | 26.6 µM | > 39.1 µM |
| CC(C)N(C[C@H]1O[C@@H](n2cnc3c(N)ncnc32)[C@H](O)[C@@H]1O)C1CC(CCc2nc3ccc(C(C)(C)C)cc3[nH]2)C1 (stereo partly specified) | > 100 µM | > 100 µM | 38.5 µM | 31.4 µM | > 100 µM | > 100 µM | > 100 µM | > 72.2 µM | > 100 µM | 33.2 µM | > 100 µM | > 100 µM | > 100 µM | > 100 µM | > 100 µM | – | 68.5 µM | > 100 µM | > 100 µM | – |
| ClC1=C(Cl)C(Cl)=C(Cl)C1=Cc1ccc(Cl)cc1 | 0.918 µM | 2.54 µM | 0.406 µM | 1.53 µM | 3.84 µM | 0.844 µM | 2.38 µM | 0.287 µM | 0.904 µM | 0.386 µM | 1.79 µM | 0.309 µM | 0.853 µM | 1.07 µM | 2.42 µM | 0.253 µM | 0.484 µM | 2.04 µM | 1.52 µM | 1.72 µM |
| C=C1CO[C@@H]2C[C@@H]1CC/C(C)=C/CC/C(C)=C/CC[C@@]2(C)O | 15.4 µM | 33 µM | 27.3 µM | 15.9 µM | 44.9 µM | 17.4 µM | 36 µM | 17.9 µM | 32.9 µM | 25.4 µM | > 63.6 µM | 24.1 µM | 51.6 µM | 23.3 µM | 51.6 µM | 1.71 µM | 18.3 µM | 42.8 µM | > 60.9 µM | 12.8 µM |
| c1cnc2c(c1)Nc1cnncc1S2 | – | > 100 µM | – | – | > 100 µM | – | > 100 µM | – | > 100 µM | – | > 100 µM | – | > 100 µM | – | > 100 µM | – | – | > 100 µM | > 100 µM | > 100 µM |
| O=P1(O)c2ccccc2CS(=O)(=O)Cc2ccccc21 | – | > 100 µM | – | – | > 100 µM | – | > 100 µM | – | > 100 µM | – | > 100 µM | – | > 100 µM | – | > 100 µM | – | – | > 100 µM | > 100 µM | – |

Reference: PubChem BioAssay (NCI)
